Results as given in patent US20240277693A1, “A PHARMACEUTICAL PRODUCT CONTAINING TASQUINIMOD AND A METHOD FOR ASSESSING THE PURITY OF SAID PRODUCT” (ACTIVE BIOTECH AB, priority 2021, published 2024).

Assays:
[1] = Stability testing of capsules at 40° C./75% RH; format: physicochemical
Source text: (§1) In some embodiments, the method disclosed herein comprises storing (keeping) a sample of the pharmaceutical product for a period of time, preferably under selected conditions of temperature and humidity. The amount (or concentration) of tasquinimod and of at least one of compounds I, II, III and IV in the sample may preferably be determined at the beginning or before the storage period and at the end of the storage period. The selected storage conditions may include a temperature in the range of, for example, 20° C. to 40° C., and a relative humidity in the surrounding atmosphere in the range of, for example, 30% to 75%; e.g. 25° C. and 60% RH, or 30° C. and 65% RH, or 35° C. and 70% RH, or 40° C. and 75% RH. The storage period may extend over a time period in the range of, for example, several weeks to several years. For example, the stability testing period (“storage period”) may be 2 weeks, 3 weeks, 1 month, 2 months, 3 months, 4 months, 5 months, 6 months, 9 months, 1 year, 18 months, 2 years, 3 years, 4 years or even 5 years or longer. A shorter storage period may be selected by use of higher storage temperature and/or higher relative humidity (RH). The total amount of a tasquinimod decomposition product in the sample at the end of the storage period may be determined by, for example, HPLC.
The batch of capsules manufactured in Example 2 was assessed by determining the amount of tasquinimod and the amount of compound III in a sample of the capsules, whereby the criterion for approving the batch was that a sample of capsules from the batch, at the end of a 1-month stability testing, contain not more than 1.0% w/w of compound III relative to the amount of tasquinimod. The stability testing consisted of keeping the capsules at 40° C./75% RH in open brown glass jars. At the end of the 1-month stability testing, the capsules contained 0.13% w/w of compound III, relative to the amount of tasquinimod (1.04 mg/capsule). Therefore, according to the selected criterion for approval, the batch of capsules was determined to be suitable for distribution.
The batch of capsules manufactured in Example 7 was assessed by determining the amount of tasquinimod and the amount of compound III in a sample of the capsules, whereby the criterion for approving the batch was that a sample of capsules from the batch, at the end of a 3-month stability testing, contain not more than 1.0% w/w of compound III relative to the amount of tasquinimod in the capsules. The stability testing consisted of keeping the capsules at 40° C./75% RH in sealed brown glass jars. At the end of the stability testing, the capsules contained 0.08% w/w of compound III, relative to the amount of tasquinimod (0.493 mg/capsule). Therefore, according to the selected criterion for approval, the batch of capsules was determined to be suitable for distribution.
The batch of capsules manufactured in Example 13 was assessed by determining the amount of tasquinimod and the amount of compound III in a sample of the capsules, whereby the criterion for approving the batch was that the capsules of the sample, at the end of a 3-month stability testing, contain not more than 1.0% w/w of compound III relative to the amount of tasquinimod in the capsules. The stability testing consisted of keeping the capsules, in a transparent, conventional blister pack, at 40° C./75% RH. At the end of the stability testing, the capsules contained 0.12% w/w of compound III, relative to the amount of tasquinimod (determined to be 0.253 mg/capsule). Therefore, according to the selected criterion for approval, the batch of capsules was determined to be suitable for distribution.

[2] = Stability testing of capsules at 25° C./60% RH in water impermeable blister pack; format: physicochemical
Source text: as §1
The batch of capsules manufactured in Example 19 was assessed by determining the amount of tasquinimod and the amount of each one of compounds I, II, III and IV in a sample of the capsules at the end of a 3-month stability testing, whereby the criterion for approving the batch was that the capsules of the sample, at the end of the 3-month stability testing, contain a total amount of compounds I-IV of not more than 5.0% w/w, relative to the amount of tasquinimod in the capsules. The stability testing consisted of keeping the capsules, in a water impermeable blister pack, at 25° C./60% RH. At the end of the stability testing, the capsules contained 0.06% w/w of compound I, less than 0.05% w/w of compound II, 0.10% of compound III and less than 0.05% w/w of compound IV, relative to the amount of tasquinimod (determined to be 0.246 mg/capsule), viz. in total less than 0.26% w/w of compounds I-IV relative to the amount of tasquinimod. Therefore, according to the selected criterion for approval, the batch of capsules was determined to be suitable for distribution.
The obtained batch of capsules was subjected to multiple assessments, viz. a first assessment comprising determining the amount of tasquinimod and the amount of compounds I, II, III and IV in a sample of the capsules directly after manufacturing, whereby the selected criterion for approving the batch for distribution was that the capsules of the sample, in a water impermeable blister pack, contain not more than in total 5% w/w of compounds I-IV relative to the amount of tasquinimod, followed by eight further, independent assessments, by determining the amount of tasquinimod and the amount of each one of compounds I, II, III and IV in a sample of the capsules at the end of a period of stability testing (by keeping the capsules, in a water impermeable blister pack, at 25° C./60% RH) of 3, 6, 9, 12, 18, 24, 36 and 48 months, respectively, whereby each time the criterion for approving the batch was that the capsules of the sample, at the end of each period of stability testing, contain a total amount of compounds I-IV of not more than 5.0% w/w, relative to the amount of tasquinimod in the capsules.

[3] = 0.25 mg capsules of Example 10, 3 months, sealed brown glass jars
[4] = 0.25 mg capsules of Example 10, 6 months, sealed brown glass jars
[5] = 0.25 mg capsules of Example 13, 3 months, transparent blister pack
[6] = 0.25 mg capsules of Example 13, 6 months, blister pack
[7] = 0.5 mg capsules of Example 7, 3 months, sealed brown glass jars
[8] = 0.5 mg capsules of Example 7, 6 months, sealed brown glass jars
[9] = 1 mg capsules of Example 2, 1 month, open brown glass jars
[10] = 1 mg capsules of Example 2, 2 months, open brown glass jars
[11] = 1 mg capsules of Example 2, 3 months, open brown glass jars
[12] = 1 mg capsules of Example 2, 6 months, open brown glass jars
[13] = 1 mg capsules of Example 16, 3 months, transparent blister pack
[14] = 1 mg capsules of Example 16, 6 months, blister pack
[15] = 0.25 mg capsules of Example 19, 3 months
[16] = 0.25 mg capsules of Example 19, 6 months
[17] = 0.25 mg capsules of Example 19, 9 months
[18] = 0.25 mg capsules of Example 19, 12 months
[19] = 0.25 mg capsules of Example 19, 18 months
[20] = 0.25 mg capsules of Example 19, 24 months
[21] = 0.25 mg capsules of Example 19, 36 months
[22] = 0.25 mg capsules of Example 19, 48 months
[23] = 0.5 mg capsules of Example 28, 3 months
[24] = 0.5 mg capsules of Example 28, 6 months
[25] = 0.5 mg capsules of Example 28, 9 months
[26] = 0.5 mg capsules of Example 28, 12 months
[27] = 0.5 mg capsules of Example 28, 18 months
[28] = 0.5 mg capsules of Example 28, 24 months
[29] = 0.5 mg capsules of Example 28, 36 months
[30] = 0.5 mg capsules of Example 28, 48 months
[31] = 1.0 mg capsules of Example 29, 3 months
[32] = 1.0 mg capsules of Example 29, 6 months
[33] = 1.0 mg capsules of Example 29, 9 months
[34] = 1.0 mg capsules of Example 29, 12 months
[35] = 1.0 mg capsules of Example 29, 18 months
[36] = 1.0 mg capsules of Example 29, 24 months
[37] = 1.0 mg capsules of Example 29, 36 months
[38] = 1.0 mg capsules of Example 29, 48 months

COc1cccc2c1c(O)c(C(=O)N(C)c1ccc(C(F)(F)F)cc1)c(=O)n2C [Tasquinimod, 4-hydroxy-5-methoxy-N, 1-dimethyl-2-oxo-N-[4-(trifluoromethyl)phenyl]-1,2-dihydroquinoline-3-carboxamide]
amount of tasquinimod in capsules [1, 3]: 0.253 mg/capsule | amount of tasquinimod in capsules [1, 4]: 0.247 mg/capsule | amount of tasquinimod in capsules [1, 5]: 0.253 mg/capsule | amount of tasquinimod in capsules [1, 6]: 0.247 mg/capsule | amount of tasquinimod in capsules [1, 7]: 0.493 mg/capsule | amount of tasquinimod in capsules [1, 8]: 0.487 mg/capsule | amount of tasquinimod in capsules [1, 9]: 1.04 mg/capsule | amount of tasquinimod in capsules [1, 10]: 1.04 mg/capsule | amount of tasquinimod in capsules [1, 11]: 1.00 mg/capsule | amount of tasquinimod in capsules [1, 12]: 1.01 mg/capsule | amount of tasquinimod in capsules [1, 13]: 0.993 mg/capsule | amount of tasquinimod in capsules [1, 14]: 0.985 mg/capsule | amount of tasquinimod in capsules [2, 15]: 0.246 mg/capsule | amount of tasquinimod in capsules [2, 16]: 0.243 mg/capsule | amount of tasquinimod in capsules [2, 17]: 0.243 mg/capsule | amount of tasquinimod in capsules [2, 18]: 0.245 mg/capsule | amount of tasquinimod in capsules [2, 19]: 0.245 mg/capsule | amount of tasquinimod in capsules [2, 20]: 0.237 mg/capsule | amount of tasquinimod in capsules [2, 21]: 0.237 mg/capsule | amount of tasquinimod in capsules [2, 22]: 0.238 mg/capsule | Tasquinimod (mg/capsule) [2, 23]: 0.501 mg/capsule | Tasquinimod (mg/capsule) [2, 24]: 0.497 mg/capsule | Tasquinimod (mg/capsule) [2, 25]: 0.504 mg/capsule | Tasquinimod (mg/capsule) [2, 26]: 0.500 mg/capsule | Tasquinimod (mg/capsule) [2, 27]: 0.501 mg/capsule | Tasquinimod (mg/capsule) [2, 28]: 0.486 mg/capsule | Tasquinimod (mg/capsule) [2, 29]: 0.490 mg/capsule | Tasquinimod (mg/capsule) [2, 30]: 0.494 mg/capsule | Tasquinimod (mg/capsule) [2, 31]: 0.989 mg/capsule | Tasquinimod (mg/capsule) [2, 32]: 0.988 mg/capsule | Tasquinimod (mg/capsule) [2, 33]: 1.007 mg/capsule | Tasquinimod (mg/capsule) [2, 34]: 0.992 mg/capsule | Tasquinimod (mg/capsule) [2, 35]: 0.982 mg/capsule | Tasquinimod (mg/capsule) [2, 36]: 0.997 mg/capsule | Tasquinimod (mg/capsule) [2, 37]: 1.000 mg/capsule | Tasquinimod (mg/capsule) [2, 38]: 0.987 mg/capsule

COc1cccc2c1c(O)cc(=O)n2C [Compound III, 4-hydroxy-5-methoxy-1-methylquinolin-2(1H)-one]
amount of compound III in capsules, relative to the amount of tasquinimod [1, 3]: 0.10 % w/w | amount of compound III in capsules, relative to the amount of tasquinimod [1, 4]: 0.10 % w/w | amount of compound III in capsules, relative to the amount of tasquinimod [1, 5]: 0.12 % w/w | amount of compound III in capsules, relative to the amount of tasquinimod [1, 6]: 0.24 % w/w | amount of compound III in capsules, relative to the amount of tasquinimod [1, 7]: 0.08 % w/w | amount of compound III in capsules, relative to the amount of tasquinimod [1, 8]: 0.14 % w/w | amount of compound III in capsules, relative to the amount of tasquinimod [1, 9]: 0.13 % w/w | amount of compound III in capsules, relative to the amount of tasquinimod [1, 10]: 0.12 % w/w | amount of compound III in capsules, relative to the amount of tasquinimod [1, 11]: 0.14 % w/w | amount of compound III in capsules, relative to the amount of tasquinimod [1, 12]: 0.16 % w/w | amount of compound III in capsules, relative to the amount of tasquinimod [1, 13]: 0.13 % w/w | amount of compound III in capsules, relative to the amount of tasquinimod [1, 14]: 0.21 % w/w | amount of decomposition product (each of compounds I-IV) in capsules, relative to the amount of tasquinimod [2, 15]: 0.10 % w/w | amount of decomposition product (each of compounds I-IV) in capsules, relative to the amount of tasquinimod [2, 16]: 0.16 % w/w | amount of decomposition product (each of compounds I-IV) in capsules, relative to the amount of tasquinimod [2, 17]: 0.21 % w/w | amount of decomposition product (each of compounds I-IV) in capsules, relative to the amount of tasquinimod [2, 18]: 0.26 % w/w | amount of decomposition product (each of compounds I-IV) in capsules, relative to the amount of tasquinimod [2, 19]: 0.35 % w/w | amount of decomposition product (each of compounds I-IV) in capsules, relative to the amount of tasquinimod [2, 20]: 0.41 % w/w | amount of decomposition product (each of compounds I-IV) in capsules, relative to the amount of tasquinimod [2, 21]: 0.57 % w/w | amount of decomposition product (each of compounds I-IV) in capsules, relative to the amount of tasquinimod [2, 22]: 0.79 % w/w | Decomposition products (% w/w), relative to the amount of tasquinimod in capsule [2, 23]: 0.05 % w/w | Decomposition products (% w/w), relative to the amount of tasquinimod in capsule [2, 24]: 0.09 % w/w | Decomposition products (% w/w), relative to the amount of tasquinimod in capsule [2, 25]: 0.11 % w/w | Decomposition products (% w/w), relative to the amount of tasquinimod in capsule [2, 26]: 0.13 % w/w | Decomposition products (% w/w), relative to the amount of tasquinimod in capsule [2, 27]: 0.16 % w/w | Decomposition products (% w/w), relative to the amount of tasquinimod in capsule [2, 28]: 0.19 % w/w | Decomposition products (% w/w), relative to the amount of tasquinimod in capsule [2, 29]: 0.27 % w/w | Decomposition products (% w/w), relative to the amount of tasquinimod in capsule [2, 30]: 0.36 % w/w | Decomposition products (% w/w), relative to the amount of tasquinimod in capsule [2, 31]: <0.05 % w/w | Decomposition products (% w/w), relative to the amount of tasquinimod in capsule [2, 32]: <0.05 % w/w | Decomposition products (% w/w), relative to the amount of tasquinimod in capsule [2, 33]: <0.05 % w/w | Decomposition products (% w/w), relative to the amount of tasquinimod in capsule [2, 34]: 0.06 % w/w | Decomposition products (% w/w), relative to the amount of tasquinimod in capsule [2, 35]: 0.09 % w/w | Decomposition products (% w/w), relative to the amount of tasquinimod in capsule [2, 36]: 0.10 % w/w | Decomposition products (% w/w), relative to the amount of tasquinimod in capsule [2, 37]: 0.15 % w/w | Decomposition products (% w/w), relative to the amount of tasquinimod in capsule [2, 38]: 0.18 % w/w
